Reference: ChEMBL document CHEMBL6153141, “Design, Synthesis, and Mechanism Study of Novel BMX Inhibitors Based on the Core of 1,3,5-Triazin-2-Amine for the Treatment of Gastric Carcinoma” (J Med Chem, 2025)
Active and inactive are the calls of the source. No cut-off for these calls is given here.

Legend:
HGC-27 [1] = assay: Inhibition of AKT-mTOR signaling in human HGC-27 cells assessed as decrease in phosphorylated mTOR expression at 5 to 15 uM incubated for 48 hrs by Western blot analysis; format: cell-based; settings: dose 5-15 µM
4T1 = assay: Anticancer activity against mouse 4T1 cells assessed as inhibition of cell proliferation incubated for 72 hrs by MTT assay; format: functional, cell-based; settings: 4T1, 72 h
HGC-27 [2] = assay: Induction of apoptosis in human HGC-27 cells assessed as increase in cleaved PARP level incubated for 48 hrs by Western blot analysis; format: functional, cell-based; settings: dose 5-15 µM
HGC-27 [3] = assay: Inhibition of AKT-mTOR signaling in human HGC-27 cells assessed as decrease in phosphorylated AKT expression at 5 to 15 uM incubated for 48 hrs by Western blot analysis; format: cell-based; settings: dose 5-15 µM
[4] = Oral bioavailability in Sprague-Dawley rat at 5 mg/kg measured after 24 hrs by LC-MS/MS analysis; format: ADME, organism-based; settings: in vivo
[5] = biological target: Epidermal growth factor receptor (Homo sapiens, UniProt P00533); assay: Inhibition of EGFR (unknown origin) in presence of ATP at Km concentration
MGC-803 [6] = assay: Antiproliferative activity against human MGC-803 cells assessed as reduction in number of EdU-positive cells incubated for 48 hrs by confocal laser scanning microscopic analysis; format: functional, cell-based; settings: dose 5-15 µM
HGC-27 [7] = assay: Induction of autophagy in human HGC-27 cells assessed as increase in LC3B protein expression incubated for 48 hrs by Western blot analysis; format: functional, cell-based; settings: dose 5-15 µM
Cytochrome P450 2C19 = Cytochrome P450 2C19 (Homo sapiens, UniProt P33261); assay: Inhibition of CYP2C19 in human liver microsomes using omeprazole as substrate preincubated for 5 mins followed by NADPH addition and measured after 10 mins by LC-MS/MS analysis; format: ADME, Microsome
HGC-27 [8] = assay: Antitumor activity against human HGC-27 cells xenografted in female BALB/c nude mouse model assessed as reduction in tumor weight at 30 mg/kg/day, ip administered for 21 days; format: functional, organism-based; settings: time 21.0 day
[9] = Metabolic stability in human liver microsomes assessed as intrinsic clearance at 100 uM measured upto 60 mins in presence of NADPH by LC-MS/MS analysis; format: ADME, Microsome; settings: read-out: CLH
MGC-803 [10] = assay: Induction of apoptosis in LC3B knockout human MGC-803 cells assessed as increase in cleaved PARP level at 20 uM by Western blot analysis; format: functional, cell-based
MGC-803 [11] = assay: Inhibition of colony formation in human MGC-803 cells assessed as decrease in clonogenic ability at 2.5 to 10 uM incubated for 48 hrs by crystal violet staining based analysis; format: functional, cell-based; settings: dose 2.5-10 µM
HGC-27 [12] = assay: Induction of apoptosis in LC3B knockout human HGC-27 cells assessed as increase in cleaved caspase 9 level at 15 uM by Western blot analysis; format: functional, cell-based
[13] = Toxicity in female BALB/c nude mouse model xenografted with human HGC-27 cells assessed as effect on heart at 30 mg/kg, ip administered for 21 days by H and E staining based analysis; format: organism-based; settings: in vivo, 504 h, time 21 day
A549 = assay: cells; settings: Homo sapiens, A549, 72 h
Description: Anticancer activity against human A549 cells assessed as inhibition of cell proliferation incubated for 72 hrs by MTT assay

CWR22R = assay: cells; settings: Homo sapiens, 22Rv1, 72 h
Description: Anticancer activity against human 22Rv1 cells assessed as inhibition of cell proliferation incubated for 72 hrs by MTT assay

Cytochrome P450 2D6 = Cytochrome P450 2D6 (Homo sapiens, UniProt P10635); assay: Inhibition of CYP2D6 in human liver microsomes using dextromethorphan as substrate preincubated for 5 mins followed by NADPH addition and measured after 10 mins by LC-MS/MS analysis; format: ADME, Microsome
HGC-27 [14] = assay: Cell cycle arrest in human HGC-27 cells assessed as accumulation of cells at G1 phase at 5 to 15 uM incubated for 48 hrs by flow cytometric analysis; format: functional, cell-based; settings: dose 5-15 µM
MGC-803 [15] = assay: Downregulation of BMX protein expression in human MGC-803 cells incubated for 48 hrs by Western blot analysis; format: functional, cell-based; settings: dose 10-20 µM
HGC-27 [16] = assay: Induction of autophagy in human HGC-27 cells assessed as decrease in p62 protein expression incubated for 48 hrs by Western blot analysis; format: functional, cell-based; settings: dose 5-15 µM
MGC-803 [17] = assay: Anti-invasive activity in human MGC-803 cells assessed as decrease in invasion ability at 10 to 20 uM incubated for 48 hrs by transwell assay; format: functional, cell-based; settings: dose 10-20 µM
MGC-803 [18] = assay: Induction of autophagy in human MGC-803 cells assessed as increase in LC3B protein expression incubated for 48 hrs by Western blot analysis; format: functional, cell-based; settings: dose 10-20 µM
[19] = biological target: Tyrosine-protein kinase BTK (Homo sapiens, UniProt Q06187); assay: Inhibition of BTK (unknown origin) in presence of ATP at Km concentration
MGC-803 [20] = assay: Inhibition of AKT-mTOR signaling in human […] cells assessed as decrease in phosphorylated AKT expression at 10 to 20 uM incubated for 48 hrs by Western blot analysis; format: cell-based; settings: dose 10-20 µM
[21] = Cytotoxicity against human L02 cells assessed as inhibition of cell proliferation incubated for 72 hrs by MTT assay; format: toxicity, cell-based
HGC-27 [22] = assay: Induction of apoptosis in human HGC-27 cells assessed as increase in cleaved caspase 9 level incubated for 48 hrs by Western blot analysis; format: functional, cell-based; settings: dose 5-15 µM
MGC-803 [23] = assay: cells; settings: Homo sapiens, MGC-803, 48 h
Description: Antiproliferative activity against human MGC-803 cells assessed as inhibition of cell viability incubated for 48 hrs by MTT assay

[24] = Toxicity in female BALB/c nude mouse model xenografted with human HGC-27 cells assessed as effect on spleen at 30 mg/kg, ip administered for 21 days by H and E staining based analysis; format: organism-based; settings: in vivo, 504 h, time 21 day
HGC-27 [25] = assay: Inhibition of colony formation in human HGC-27 cells assessed as decrease in clonogenic ability at 2.5 to 10 uM incubated for 48 hrs by crystal violet staining based analysis; format: functional, cell-based; settings: dose 2.5-10 µM
MDA-MB-231 = assay: Anticancer activity against human MDA-MB-231 cells assessed as inhibition of cell proliferation incubated for 72 hrs by MTT assay; format: functional, cell-based; settings: MDA-MB-231, 72 h
HGC-27 [26] = assay: Antiproliferative activity against human HGC-27 cells assessed as inhibition of cell viability upto 50 uM by MTT assay; format: functional, cell-based; settings: time 24-72 hrs
HGC-27 [27] = assay: Induction of apoptosis in LC3B knockout human HGC-27 cells assessed as increase in cleaved PARP level at 15 uM by Western blot analysis; format: functional, cell-based
HGC-27 [28] = assay: Antiproliferative activity against human HGC-27 cells assessed as inhibition of cell viability incubated for 24 to 72 hrs by MTT assay; format: functional, cell-based; settings: dose <= 50.0 µM, time 24-72 hrs
HONE1 cell line = assay: Anticancer activity against human HONE1 cell line assessed as inhibition of cell proliferation incubated for 72 hrs by MTT assay; format: functional, cell-based; settings: HONE1, 72 h
HepG2 = assay: Anticancer activity against human HepG2 cells assessed as inhibition of cell proliferation incubated for 72 hrs by MTT assay; format: functional, cell-based; settings: HepG2, 72 h
[29] = Cytotoxicity against human GES1 cells assessed as inhibition of cell proliferation incubated for 72 hrs by MTT assay; format: toxicity, cell-based
[30] = biological target: Epidermal growth factor receptor (Homo sapiens, UniProt P00533, T790M); assay: Inhibition of EGFR T790M (unknown origin) in presence of ATP at Km concentration
[31] = biological target: Tyrosine-protein kinase JAK3 (Homo sapiens, UniProt P52333); assay: Inhibition of JAK3 (unknown origin) in presence of ATP at Km concentration

Sequence of Tyrosine-protein kinase BTK (Q06187 whole entry): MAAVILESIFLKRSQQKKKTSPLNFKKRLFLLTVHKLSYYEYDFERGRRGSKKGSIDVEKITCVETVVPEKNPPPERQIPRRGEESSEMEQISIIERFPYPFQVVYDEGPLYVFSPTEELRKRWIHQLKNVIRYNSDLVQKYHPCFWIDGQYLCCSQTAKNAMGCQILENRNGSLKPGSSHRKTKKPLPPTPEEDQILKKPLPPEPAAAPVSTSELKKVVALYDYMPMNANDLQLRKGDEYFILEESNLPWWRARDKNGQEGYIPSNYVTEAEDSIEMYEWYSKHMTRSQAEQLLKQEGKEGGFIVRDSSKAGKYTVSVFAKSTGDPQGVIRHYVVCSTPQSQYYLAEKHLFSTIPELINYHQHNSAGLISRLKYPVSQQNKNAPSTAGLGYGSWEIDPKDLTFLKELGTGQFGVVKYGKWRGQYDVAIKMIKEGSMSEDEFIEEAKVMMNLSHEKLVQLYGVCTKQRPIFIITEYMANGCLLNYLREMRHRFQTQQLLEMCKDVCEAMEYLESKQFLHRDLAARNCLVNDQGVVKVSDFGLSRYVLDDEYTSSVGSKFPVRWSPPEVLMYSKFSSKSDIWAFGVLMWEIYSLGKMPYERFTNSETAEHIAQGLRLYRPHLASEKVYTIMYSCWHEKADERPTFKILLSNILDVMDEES
Sequence of Cytochrome P450 2C19 (P33261 whole entry): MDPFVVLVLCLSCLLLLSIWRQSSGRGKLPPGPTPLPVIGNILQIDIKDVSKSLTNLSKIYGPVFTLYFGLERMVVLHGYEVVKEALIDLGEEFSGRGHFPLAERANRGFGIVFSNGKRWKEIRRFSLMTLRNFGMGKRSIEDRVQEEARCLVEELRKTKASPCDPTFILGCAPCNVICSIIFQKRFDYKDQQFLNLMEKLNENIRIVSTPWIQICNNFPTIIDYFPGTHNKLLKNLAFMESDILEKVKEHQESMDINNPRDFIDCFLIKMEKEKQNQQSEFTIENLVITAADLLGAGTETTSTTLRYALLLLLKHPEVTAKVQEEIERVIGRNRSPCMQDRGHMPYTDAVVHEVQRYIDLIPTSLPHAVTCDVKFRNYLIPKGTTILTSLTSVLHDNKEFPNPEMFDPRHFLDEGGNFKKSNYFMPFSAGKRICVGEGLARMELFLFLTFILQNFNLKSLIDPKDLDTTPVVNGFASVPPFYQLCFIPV
Sequence of Cytochrome P450 2D6 (P10635 whole entry): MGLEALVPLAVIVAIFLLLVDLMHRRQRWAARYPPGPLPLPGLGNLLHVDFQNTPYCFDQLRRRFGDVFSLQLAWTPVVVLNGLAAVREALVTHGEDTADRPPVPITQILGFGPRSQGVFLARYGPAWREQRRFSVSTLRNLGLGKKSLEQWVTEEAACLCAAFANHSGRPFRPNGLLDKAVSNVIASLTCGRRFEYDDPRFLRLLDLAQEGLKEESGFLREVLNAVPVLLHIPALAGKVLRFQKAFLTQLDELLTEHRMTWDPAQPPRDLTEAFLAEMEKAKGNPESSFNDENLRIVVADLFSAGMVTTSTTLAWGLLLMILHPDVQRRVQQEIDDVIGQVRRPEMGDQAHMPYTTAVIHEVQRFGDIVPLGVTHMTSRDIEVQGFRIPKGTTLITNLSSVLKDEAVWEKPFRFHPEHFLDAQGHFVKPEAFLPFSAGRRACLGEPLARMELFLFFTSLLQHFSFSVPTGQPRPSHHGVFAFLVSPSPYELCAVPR
Sequence of Epidermal growth factor receptor (Homo sapiens, UniProt P00533) (P00533 whole entry): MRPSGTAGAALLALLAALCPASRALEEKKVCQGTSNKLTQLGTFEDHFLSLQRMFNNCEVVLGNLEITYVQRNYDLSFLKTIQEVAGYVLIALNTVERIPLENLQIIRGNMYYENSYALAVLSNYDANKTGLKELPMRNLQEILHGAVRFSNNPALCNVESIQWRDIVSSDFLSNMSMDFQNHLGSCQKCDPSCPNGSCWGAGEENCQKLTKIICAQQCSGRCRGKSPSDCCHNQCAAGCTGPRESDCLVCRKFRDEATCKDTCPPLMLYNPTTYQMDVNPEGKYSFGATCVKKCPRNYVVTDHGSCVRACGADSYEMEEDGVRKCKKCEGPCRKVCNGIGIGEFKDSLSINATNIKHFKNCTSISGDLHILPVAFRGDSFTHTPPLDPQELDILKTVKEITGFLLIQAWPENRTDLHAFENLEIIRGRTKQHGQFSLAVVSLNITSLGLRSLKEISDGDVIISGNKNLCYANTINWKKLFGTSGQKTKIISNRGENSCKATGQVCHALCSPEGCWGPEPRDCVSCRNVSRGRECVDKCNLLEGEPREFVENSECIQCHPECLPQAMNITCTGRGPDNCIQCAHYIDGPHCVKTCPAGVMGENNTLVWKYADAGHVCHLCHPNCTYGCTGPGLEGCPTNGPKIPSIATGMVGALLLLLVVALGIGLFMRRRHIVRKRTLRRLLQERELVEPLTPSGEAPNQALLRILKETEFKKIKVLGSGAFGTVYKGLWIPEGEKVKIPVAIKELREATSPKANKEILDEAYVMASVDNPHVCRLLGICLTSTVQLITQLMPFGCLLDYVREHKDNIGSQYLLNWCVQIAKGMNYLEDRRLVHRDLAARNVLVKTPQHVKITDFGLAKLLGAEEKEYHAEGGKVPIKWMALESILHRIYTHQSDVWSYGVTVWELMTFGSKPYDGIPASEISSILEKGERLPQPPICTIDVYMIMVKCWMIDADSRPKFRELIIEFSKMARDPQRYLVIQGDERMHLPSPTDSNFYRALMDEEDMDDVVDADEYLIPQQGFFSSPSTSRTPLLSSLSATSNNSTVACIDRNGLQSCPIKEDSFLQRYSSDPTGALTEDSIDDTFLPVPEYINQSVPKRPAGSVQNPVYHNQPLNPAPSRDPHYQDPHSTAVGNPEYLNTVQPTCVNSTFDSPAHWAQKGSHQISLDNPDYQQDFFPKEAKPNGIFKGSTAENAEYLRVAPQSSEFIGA
Sequence of Epidermal growth factor receptor (Homo sapiens, UniProt P00533, T790M) (P00533 25-1210 T790M limits assumed): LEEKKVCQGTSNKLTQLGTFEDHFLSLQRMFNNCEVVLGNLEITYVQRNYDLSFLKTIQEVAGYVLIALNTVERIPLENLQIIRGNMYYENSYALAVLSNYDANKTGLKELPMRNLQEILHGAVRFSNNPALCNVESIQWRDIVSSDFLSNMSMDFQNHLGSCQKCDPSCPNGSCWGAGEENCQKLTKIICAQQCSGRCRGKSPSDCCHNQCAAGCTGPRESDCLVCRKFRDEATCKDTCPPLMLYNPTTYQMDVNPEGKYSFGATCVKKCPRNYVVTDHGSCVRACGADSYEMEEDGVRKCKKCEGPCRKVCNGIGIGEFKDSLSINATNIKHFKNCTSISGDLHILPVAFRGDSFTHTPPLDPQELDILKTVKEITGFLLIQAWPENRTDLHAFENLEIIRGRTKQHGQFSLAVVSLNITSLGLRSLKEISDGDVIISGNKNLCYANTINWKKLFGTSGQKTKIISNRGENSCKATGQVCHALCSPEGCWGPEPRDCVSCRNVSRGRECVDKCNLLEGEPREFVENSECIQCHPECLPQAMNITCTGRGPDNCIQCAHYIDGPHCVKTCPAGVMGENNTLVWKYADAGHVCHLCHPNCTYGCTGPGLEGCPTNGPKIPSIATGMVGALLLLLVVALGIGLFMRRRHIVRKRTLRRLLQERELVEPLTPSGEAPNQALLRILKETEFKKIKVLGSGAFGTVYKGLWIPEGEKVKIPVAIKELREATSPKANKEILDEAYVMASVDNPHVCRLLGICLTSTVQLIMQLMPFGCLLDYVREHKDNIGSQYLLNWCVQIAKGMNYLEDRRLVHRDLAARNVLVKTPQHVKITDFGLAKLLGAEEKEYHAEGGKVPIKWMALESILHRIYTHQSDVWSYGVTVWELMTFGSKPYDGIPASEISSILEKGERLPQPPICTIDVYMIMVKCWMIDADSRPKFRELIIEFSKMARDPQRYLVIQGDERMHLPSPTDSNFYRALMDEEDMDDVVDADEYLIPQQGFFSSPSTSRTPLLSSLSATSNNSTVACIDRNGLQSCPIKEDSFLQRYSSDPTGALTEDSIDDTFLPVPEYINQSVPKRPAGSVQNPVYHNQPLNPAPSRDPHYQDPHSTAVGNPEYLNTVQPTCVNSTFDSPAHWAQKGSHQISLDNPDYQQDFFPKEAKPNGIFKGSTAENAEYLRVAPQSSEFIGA

C=CS(=O)(=O)N1CCC[C@@H](Nc2nc(N)nc(Nc3cccc(Oc4ccccc4)c3)n2)C1
inhibition (HGC-27 [1]): Active | IC50 (4T1): 16.6 µM | Activity (HGC-27 [2]): Dose-dependent-effect | inhibition (HGC-27 [3]): Active | bioavailability [4]: 6.6% | IC50 [5]: 0.468 µM | Activity (MGC-803 [6]): Dose-dependent-effect | Activity (HGC-27 [7]): Dose-dependent-effect | IC50 (Cytochrome P450 2C19): > 100 µM | Activity (HGC-27 [8]): Active | microsomal CLint at 100 µM [9]: 214 µL/min/mg | Activity (MGC-803 [10]): Active | inhibition (MGC-803 [11]): Active | Activity (HGC-27 [12]): Active | Activity [13]: Non-toxic | IC50 (A549): 29.4 µM | IC50 (CWR22R): 13.4 µM | IC50 (Cytochrome P450 2D6): 82 µM | Activity (HGC-27 [14]): Active | Activity (MGC-803 [15]): Dose-dependent-effect | Activity (HGC-27 [16]): Dose-dependent-effect | Activity (MGC-803 [17]): Active | Activity (MGC-803 [18]): Dose-dependent-effect | IC50 [19]: 0.187 µM | inhibition (MGC-803 [20]): Active | IC50 at 72 h [21]: > 32 µM | Activity (HGC-27 [22]): Dose-dependent-effect | IC50 (MGC-803 [23]): 15.2 µM | Activity [24]: Non-toxic | inhibition (HGC-27 [25]): Active | IC50 (MDA-MB-231): 19.7 µM | Activity (HGC-27 [26]): Time-dependent-effect | Activity (HGC-27 [27]): Active | Activity (HGC-27 [28]): Dose-dependent-effect | IC50 (HONE1 cell line): 15.7 µM | IC50 (HepG2): > 32 µM | IC50 at 72 h [29]: 21.2 µM | IC50 [30]: 0.177 µM | IC50 [31]: 0.437 µM
